Legend:
ThnG = assay: In vitro reaction of carbapenam/ems with purified ThnG, HPLC and ESI-MS analysis of products; assay type: biochemical, Streptomyces cattleya; details: 1 mM substrate, 0.2 mg/mL ThnG, 25 mM MOPS pH 7.0, ferrous ammonium sulfate, α-KG, ascorbate, room temperature 1 h
Method: (§1) Thienamycin biosynthetic cluster genes thnG and thnQ were cloned from genomic DNA and inserted into pET29b each bearing a C-terminal His6-tag. The recombinant proteins were overproduced in E. coli Rosetta2(DE3) and purified by Ni-NTA affinity chromatography. In vitro reactions in MOPS, pH 7.0, containing Fe(NH4)2(SO4)2, α-KG, ascorbate, the subject carbapenam/em, and either ThnG or ThnQ were incubated and analyzed by HPLC for the formation of new product(s). Salowe, S. P., et al., Biochemistry 29(27):6499-6508 (1990); Decristoforo, G. Anal. Chim. Acta 163(SEP):25-33 (1984). […] The products were immediately identifiable as carbapenems by their unique chromophores (λmax=290-320 nm). ThnQ produced a single new product more polar than 5, while ThnG produced two products, one with a shorter retention time and one with a longer retention time than that of 5.
For routine HPLC analysis, reactions were assembled containing 25 mM MOPS, pH 7.0, 1 mM ascorbate, 0.08 mM ferrous ammonium sulfate, 8 mM α-ketoglutarate (α-KG), 1 mM of the substrate and 0.2 mg/mL ThnG or ThnQ. Salowe, S. P., et al., Biochemistry 29(27):6499-6508 (1990). After addition of the protein, the reactions were incubated at room temperature for 1 h. The protein was then removed with an Amicon Ultra 10,000 MWCO filter. For ESI mass spectroscopic analysis of HPLC purified enzymatic products, reactions were assembled under similar conditions except containing 2 mM substrate, 2 mM ascorbate and 0.6 mg/mL ThnG or ThnQ.
HPLC conditions: Phenomenex Luna 5 μC18(2) analytical column; Method 1, A=50 mM ammonium formate pH 8.5, B=MeOH, t=0 min 0% B, t=10 min 35% B, t=13 min 35% B, t=15 min 0% B, t=20 min 0% B. Method 2, A=50 mM ammonium formate pH 8.5, B=MeOH, t=0 min 0% B, t=10 min 33% B, t=18 min 33% B, t=20 min 0% B, t=25 min 0% B. λ=300 nm (carbapenem) or 220 nm (carbapenam). Decristoforo, G., Anal. Chim. Acta 163:25-33 (1984). Purified carbapenems were collected from the HPLC and analyzed directly by ESI mass spectrometry in the negative ion mode.

ThnQ = assay: In vitro reaction of carbapenam/ems with purified ThnQ, HPLC and ESI-MS analysis of products; assay type: biochemical, Streptomyces cattleya; details: 1 mM substrate, 0.2 mg/mL ThnQ, 25 mM MOPS pH 7.0, ferrous ammonium sulfate, α-KG, ascorbate, room temperature 1 h
Method: as §1, with “5. […]” for “5.”
HPLC conditions: Phenomenex Luna 5 μC18(2) analytical column; Method 1, A=50 mM ammonium formate pH 8.5, B=MeOH, t=0 min 0% B, t=10 min 35% B, t=13 min 35% B, t=15 min 0% B, t=20 min 0% B. Method 2, A=50 mM ammonium formate pH 8.5, B=MeOH, t=0 min 0% B, t=10 min 33% B, t=18 min 33% B, t=20 min 0% B, t=25 min 0% B. λ=300 nm (carbapenem) or 220 nm (carbapenam). […] Purified carbapenems were collected from the HPLC and analyzed directly by ESI mass spectrometry in the negative ion mode.

Compound | product(s) of the ThnG-catalyzed reaction (HPLC, ESI-MS) (ThnG) | product(s) of the ThnQ-catalyzed reaction (HPLC, ESI-MS) (ThnQ)
CC(=O)NCCSC1=C(C(=O)O)N2C(=O)[C@H]([C@@H](C)O)[C@H]2C1 [compound 2, N-acetyl thienamycin] | N-acetyl dehydrothienamycin (3) | –
CC[C@H]1C(=O)N2C(C(=O)O)=C(SCCNC(C)=O)C[C@H]12 [compound 5, PS-5] | identified as PS-7 (7) and PS-7 sulfoxide 9 | stereospecifically hydroxylated PS-5 (5) to produce 2
CCC1C(=O)N2C(C(=O)O)=C(S/C=C/NC(C)=O)CC12 (stereo not drawn) [compound 7, PS-7] | able to convert 7 to its sulfoxide | N-acetyl dehydrothienamycin (3)
CCC1C(=O)N2C(C(=O)O)=C([S+]([O-])CCNC(C)=O)CC12 (stereo not drawn) [compound 8, PS-5 sulfoxide] | unable to catalyze desaturation | –
